Reference: PMC6472337, “L amino acid transporter structure and molecular bases for the asymmetry of substrate interaction” (Nature Communications, 2019)
Where “and” joins values, the source holds several entries; their conditions need not be identical. Equal entries are not always repeated. Where two headings read alike, the source gives them in different places.

Experiments:
[1] = molecular target: BasC Y236F mutant; test: Thermostability-based L-alanine binding assay, Y236F; set-up: species or system Carnobacterium sp AT7; conditions: for Kd Y236F binding curve, normalized signal: n=1-3
Procedure: (§1) GFP-fused BasC proteins purified in DM were incubated for 10 min at 4–60 °C (Y236F and K154A mutants) or 4–70 °C (wild-type). In total, 200 µl of 2 mg ml^−1 protein was used for each temperature point. Protein was then centrifuged at 186,000 × g for 30 min. […] Fractions (200 µl) were collected and measured for GFP fluorescence. The peak heights were normalized to those of samples incubated at 4 °C and were fit to the Hill equation using the GraphPad Prism 4 program (GraphPad Software Inc., San Diego, CA). Melting temperatures (Tm) were determined by fitting the curves to a sigmoidal dose-response equation, as previously described.
(§2) BasC-GFP proteins were then incubated at the calculated Tm for 10 min and centrifuged at 186,000 × g for 30 min. […] Binding affinities were determined by fitting the curves to a sigmoidal dose-response equation.

[2] = test system: BasC K154A mutant; test: [3H]L-alanine transport in BasC K154A proteoliposomes; type: biochemical, Carnobacterium sp AT7; set-up: V/[L-Ala]: unit not given here; conditions: for V/[L-Ala]: Eadie-Hofstee, n=1-3 and mean
Procedure: BasC was overexpressed as a C-terminal fusion with GFP in E. coli BL21 Star (DE3) cells grown in LB media. Single point mutations (Supplementary Table 2) were introduced using the QuikChange site-directed mutagenesis kit (Stratagene, San Diego, CA). All mutations were verified by sequencing. Expression was induced with 0.1 mM isopropyl-ß-D-thiogalactopyranoside at 37 °C for 22 h. Cells were harvested at 5000 × g for 15 min at 4 °C and stored at −80 °C until use. Cell pellets were thawed and resuspended in 20 mM Tris-Base, 150 mM NaCl, pH 7.4. Cells were pelleted again at 5000 × g for 15 min at 4 °C, resuspended in lysis buffer (20 mM Tris-Base, 350 mM NaCl, pH 7.4, 1 mM pefabloc and complete mini protease inhibitor cocktail) (Roche, Basel Switzerland) and then broken using a Cell Disruptor (four cycles at 20,000 psi; Constant Systems Ltd., Daventry, UK). Cell debris was removed by centrifugation (15,000 × g for 1 h at 4 °C), and the supernatant was subjected to ultracentrifugation (200,000 × g for 2 h at 4 °C). The membrane pellet was resuspended in 20 mM Tris-Base, 150 mM NaCl, pH 7.4 and 10% glycerol at a protein concentration of 8–12 mg ml^−1, and then frozen in liquid nitrogen and stored at −80 °C until use.
BasC-GFP protein was reconstituted in E. coli polar lipids (Sigma-Aldrich, Madrid, Spain), as previously described. Lipids were dried under N2 and suspended in reconstitution buffer (20 mM Tris-Base, 150 mM NaCl, pH 7.4). The suspension was sonicated to clarity and purified BasC protein was added to reach the desired protein to lipid ratio of 1:100 (w:w). To destabilize the liposomes, 1.25% ß-D-octylglucoside was added and the mixture was incubated on ice with occasional agitation for 5 min. DDM and ß-D-octylglucoside were removed by dialysis for 40 h at 4 °C against 100 volumes of dialysis buffer. Proteoliposome (PL) suspensions were frozen in liquid N2 and stored at −80 °C until use.
For uptake experiments, the desired intraliposomal amino acid concentration was added to the PL suspension, which was then subjected to three freeze/thaw cycles. The extraliposomal amino acid content was then removed by ultracentrifugation (100,000 × g for 1 h at 4 °C) and PLs were resuspended to one-third of the initial volume with reconstitution buffer. Amino acid uptake assays were initiated after mixing 10 μl of cold PLs with 180 μl of transport buffer (20 mM Tris-Base, 150 mM NaCl, pH 7.4 plus 0.5–1 µCi/180 µl of radiolabeled L-amino acid (Perkin Elmer, Waltham, MA)) supplemented with the unlabeled amino acid to the desired concentration. This mixture was then incubated at room temperature for the indicated periods. […] Filters were then washed twice with 2 ml of stop buffer and dried, and the trapped radioactivity was counted. Transport measured in PLs containing no amino acid was subtracted from each data point to calculate the net exchange. […] BasC protein in PLs was determined by Coomassie blue staining in SDS-PAGE gels compared with known amounts of BasC in DDM micelles, determined by BCA assay (Pierce, Rockford, IL) and loaded in the same gel.

[3] = molecular target: BasC K154A mutant; test: Thermostability-based L-alanine binding assay, K154A; set-up: species or system Carnobacterium sp AT7; conditions: for Kd K154A binding curve, normalized signal: n=1-3
Procedure: as §1, §2

C[C@H](N)C(=O)O [L-alanine]
Kd ([1]; Y236F, incubated at Tm, L-alanine 0–200 mM, read-out: KD (apparent, thermostability-based)): 42.3 ± 5 mM
Kd Y236F binding curve, normalized signal ([1]; [L-Alanine] 6.25 mM): 22.582 and 17.176 and 16.654
Kd Y236F binding curve, normalized signal ([1]; [L-Alanine] 12.50 mM): 33.547 and 26.076 and 17.575
Kd Y236F binding curve, normalized signal ([1]; [L-Alanine] 25 mM): 44.758 and 42.547 and 31.773
Kd Y236F binding curve, normalized signal ([1]; [L-Alanine] 50 mM): 72.230 and 70.914 and 57.702
Kd Y236F binding curve, normalized signal ([1]; [L-Alanine] 100 mM): 89.225 and 96.379 and 94.240
Kd Y236F binding curve, normalized signal ([1]; [L-Alanine] 150 mM): 94.446 and 95.445 and 86.456
Kd Y236F binding curve, normalized signal ([1]; [L-Alanine] 200 mM): 100.000
Kd ([1]; individual experiments n=1, n=2, n=3, read-out: Apparent Kd Y236F): 44.1 mM and 36.7 mM and 46.2 mM
Kd ([1]; mean of n=3, read-out: Apparent Kd Y236F, mean): 42.3 mM
Vmax [2]: 0.32 ± 0.04 pmols L-alanine µg protein^−1 s^−1
reduction of Vmax vs. wild-type [2]: ~ 10 fold
reduction of extracellular apparent affinity vs. wild-type [2]: ~ 10 fold
V/[L-Ala] ([2]; extracellular side, L-alanine 100 μM): 0.0007 and 0.0010 and 0.0009
V/[L-Ala] ([2]; extracellular side, L-alanine 500 μM): 0.000458 and 0.000473 and 0.0005
Km ([2]; extracellular side, 5 µM Nb74, read-out: Km (o)): 474 ± 42 µM
Km ([2]; intracellular side, 5 µM Nb74, read-out: Km (i)): 2040 ± 370 µM
Kd ([3]; K154A, incubated at Tm, L-alanine 0–200 mM, read-out: KD (apparent, thermostability-based)): 61.4 ± 7.3 mM
Kd K154A binding curve, normalized signal ([3]; [L-Alanine] 6.25 mM): 14.092 and 14.380 and 15.376
Kd K154A binding curve, normalized signal ([3]; [L-Alanine] 12.50 mM): 15.845 and 21.520 and 16.121
Kd K154A binding curve, normalized signal ([3]; [L-Alanine] 25 mM): 35.951 and 29.574 and 35.797
Kd K154A binding curve, normalized signal ([3]; [L-Alanine] 50 mM): 50.837 and 57.901 and 51.971
Kd K154A binding curve, normalized signal ([3]; [L-Alanine] 100 mM): 91.898 and 90.173 and 89.225
Kd K154A binding curve, normalized signal ([3]; [L-Alanine] 150 mM): 95.225 and 92.554 and 88.658
Kd K154A binding curve, normalized signal ([3]; [L-Alanine] 200 mM): 100.000
Kd ([3]; individual experiments n=1, n=2, n=3, read-out: Apparent Kd K154A): 55.6 mM and 58.9 mM and 69.7 mM
Kd ([3]; mean of n=3, read-out: Apparent Kd K154A, mean): 61.4 mM
